From ChEMBL document CHEMBL3507680, “University of Dundee, Gates Library screen for HepG2 cell viability”

Test: Human HepG2 cell viability assay in 384 well format
Format: toxicity, cell-based
Parameters: dose 125 nL, time 70.5 hour; concentration not given beside the values
Conditions: HepG2 cells, read-out: Inhibition

| SMILES | cytotoxicity at 70.5 h [%] |
| --- | --- |
| CCc1nc(CNC(=O)C2CCC(=O)N(Cc3ccccc3F)C2)no1 (centres undefined) | -8.67 |
| CC(C)Cc1cc(C(=O)NCC2CCCN(c3ccccn3)C2)on1 (centres undefined) | 9.21 |
| CSCC[C@@H](CO)n1ccnc1-c1ccc(C)o1 | 0.0887 |
| O=C1CCC(C(=O)N2CCOC(Cc3ccc(F)cc3)C2)=NN1 (centres undefined) | -11.8 |
| Cc1nn(C)c2nc(N3CCCCC3c3cccnc3)sc12 (centres undefined) | -4.09 |
| CN(CCO)Cc1nnc(C2CCN(C[C@H]3[C@@H]4CNC[C@@H]43)CC2)n1C | 9.78 |
| CCOC(=O)CCCNc1nc(C(C)(C)C)nc2c1cnn2C | -3.02 |
| COc1ccc(N2CCN(Cc3nc(CSC)no3)CC2=O)cc1 | 4.47 |
| CCn1ncnc1CN1CCC(CNC(=O)c2cccnc2O)C1 (centres undefined) | -4.94 |
| Cc1cc(N(C)Cc2c(C)noc2C)n2nc(C)c(C)c2n1 | 3.35 |
| Cc1ccc(N2CCC(c3[nH]ncc3Cc3ccccc3)CC2)nn1 | -10 |
| O=C(C(c1ccc(F)cc1)N1CCCCC1)N1CCn2cncc2C1 (centres undefined) | -1.97 |
| CCc1cc(NCCN2CCNC2=O)n2nc(C)c(C)c2n1 | -11.4 |
| Cc1cc2n(n1)CCN(c1nc(N(C)C)nc3c1CCNC3)C2 | 14.4 |
| CCCc1cc(N2CCC(N[C@H]3CC[C@H](O)CC3)CC2)nc(C)n1 | -4.54 |
| CCN(CC)C(=O)[C@@H]1C[C@H](NC(=O)c2ccn(C(C)(C)C)c2)CN1C | -1.68 |
| OCC1CCCCN1CCn1ccnc1-c1nc2ccccc2[nH]1 (centres undefined) | -2.11 |
| CCc1ccccc1OCCN1CCC(NS(C)(=O)=O)CC1 | 3.87 |
| CSCCc1nc(-c2ccc3c(c2)OCO3)n(C)n1 | -4.21 |
| Cc1ccc2[nH]c(CNC(=O)C3CC4(CCNCC4)CN3C)nc2c1C (centres undefined) | 50.4 |
| OC[C@@H]1CCCN1Cc1cn(C2CCN(C3CCCC3)CC2)nn1 | -4.14 |
| Cn1cccc1-c1cc(C(=O)N2CCCCC2c2ccc(F)cc2)[nH]n1 (centres undefined) | -3.93 |
| CC(=O)N[C@@H]1CN(C(=O)c2ccoc2)C[C@H]1c1ccc(C)cc1 | -13.3 |
| CS(=O)(=O)NC1CCN(CCOCc2ccccc2)CC1 | -6.45 |
| Cc1ccc(-c2ncc(C(=O)N3CCN4CCCCC4C3)c(O)n2)cc1 (centres undefined) | -4.08 |
| O=C(NCc1nc(C2CCCCC2)no1)C1CC(=O)N(C2CC2)C1 (centres undefined) | 5.86 |
| Cc1ccc(NC2(C(=O)NC(C)c3ncn[nH]3)CCCC2)cc1 (centres undefined) | 6.6 |

| SMILES | cytotoxicity at 70.5 h [%] |
| --- | --- |
| Cc1ccccc1CC(=O)N1C[C@H]2CC[C@@H]1CN(Cc1cccnc1)C2 | -4.12 |
| CCc1ncc(CN2CCC(CCc3ccccc3)CC2)cn1 | 20.8 |
| CCOc1ccc(CN(CCOC)C(=O)c2ccncc2Cl)cc1 | -3.6 |
| Cc1nc(N2CCCC2C(=O)NCc2ccsc2)nc2ccccc12 (centres undefined) | -6.09 |
| Cn1c(CN2CC[C@](C)(O)C(C)(C)C2)cc2ccccc21 | -5.32 |
| O=C(c1c[nH]cn1)N1CCC(n2cc(-c3ccsc3)nn2)CC1 | 18 |
| CCCc1nc(CN(CC)Cc2ccc(S(C)(=O)=O)cc2)no1 | 10.1 |
| Cn1c(-c2ccccc2Cl)nc2cc(C(=O)NCCS(C)(=O)=O)cnc21 | -7.15 |
| CN(CCC(O)c1ccccc1)c1cc(C2CC2)ncn1 (centres undefined) | -6.59 |
| CO[C@H]1CN(C(C)C)C[C@@H]1NC(=O)Nc1ccc(C(F)(F)F)cc1 | -5.18 |
| CCNC(=O)C1CCN(Cc2ccc(C(=O)Nc3cnns3)cc2)C1 (centres undefined) | 1.67 |
| Cc1ccccc1C(CNc1ncnc2c1CCNC2)N(C)C (centres undefined) | -7.27 |
| Cc1ccnc(N2CCN(C3CCS(=O)(=O)C3)CC2)n1 (centres undefined) | -13.6 |
| COCCCN(Cc1cnc(C2CCCCC2)nc1)C1CCN(C)CC1 | -16.3 |
| CCCN1C[C@H]2CC[C@@H]1CN(C(=O)Cc1c(C)nc(CC)[nH]c1=O)C2 | -8.7 |
| CN(C)C1CCN(C(=O)c2cccc(S(=O)(=O)NCC3(C)COC3)c2)C1 (centres undefined) | -9.11 |
| Cc1cc(C(=O)N(C)Cc2ccoc2)c(NC(=O)C(C)(C)C)s1 | -3.77 |
| CCc1nnc(CNC(=O)CCC2CCCN(C)C2)s1 (centres undefined) | -0.522 |
| Cc1nc(N(C)C)ncc1C(=O)N[C@H]1Cc2ccccc2[C@@H]1N | -5.1 |
| CCCn1ccnc1-c1nccn1CCC(N)=O | -7.75 |
| CCC[C@@H]1CN(C(=O)c2cc(-c3cccs3)n(C)n2)C[C@H]1N(C)C | -8.43 |
| COc1nc2c(cc1C(=O)NCc1noc(-c3ccco3)n1)CCC2 | -7.17 |
| CCN(Cc1noc(C2CCC2)n1)C(=O)CCc1cc2n(n1)CCNC2 | -7.31 |
| Cc1nc(N2C[C@@H](CN3CCCN(C)CC3)[C@@H](CO)C2)c2ccsc2n1 | 11.6 |
| CCN1CCC(CC(=O)NCCc2nc(N)cc(O)n2)CC1 | -2.8 |
| COc1ccc(OC)c(-c2nc(CN(C)Cc3noc(C)n3)c(C)o2)c1 | -21.2 |
| CN1CCC(CNC(=O)CCSc2ccc3c(c2)OCCO3)C1 (centres undefined) | -2.01 |

| SMILES | cytotoxicity at 70.5 h [%] |
| --- | --- |
| COc1cccc(CNC(=O)N2CCN3CCNC(=O)C3C2)c1 (centres undefined) | -10.4 |
| CCOc1ncccc1-c1cc2c(cc1C(N)=O)OCO2 | -3.42 |
| COc1ccc([C@@H](C)n2ccnc2-c2cc3n(n2)CCCNC3)cc1 | 18.8 |
| COCCCN1CC2(CCN(C(=O)c3ccc(=O)n(C)c3)CC2)CC1=O | -9.99 |
| CN(Cc1cccnc1)c1nc(-c2ccccn2)nc2c1CCNCC2 | -5.18 |
| CC(C)c1nnsc1CNC(=O)C1CCN(C(=O)C2CC2)CC1 | 2.6 |
| CCN1CCCC1CN(Cc1cc[nH]n1)CC1CCN(CCOC)CC1 (centres undefined) | 6.24 |
| N#Cc1ccccc1CN1CCC2(CC1)CC(c1ccccc1)C(=O)N2 (centres undefined) | 14 |
| CCOC(=O)C1(Cc2cccc(Cl)c2)CCCN(Cc2ncc[nH]2)C1 (centres undefined) | 0.345 |
| Cc1cc(CC(C)NC2CCSCC2)[nH]n1 (centres undefined) | -5.1 |
| COc1ccc(C(=O)NC2CC2)c(OC2CCN(CCCSC)CC2)c1 | -1.03 |
| O=C(O)[C@H]1C[C@H](C(=O)NCc2ccncc2)CN(CCC(F)(F)F)C1 | -6.65 |
| N[C@@H]1c2ccccc2C2(CCN(C(=O)c3cncc(Cl)c3)CC2)[C@H]1O | 19 |
| Cc1ccc(CN(C)C(C(=O)O)c2ccc3c(c2)OCO3)o1 (centres undefined) | -7.76 |
| COc1ccc(N2CCN(C(=O)Cn3nccc3C)CC2(C)C)cc1 | -0.615 |
| O=C(C1CCCN(C2CCOCC2)C1)N1Cc2ccccc2C1 (centres undefined) | 13 |
| Cn1c(=O)oc2ccc(NC(=O)N3CCSCC3)cc21 | -18.1 |
| COc1ccc2c(C)c(C(=O)NC3CCN(S(C)(=O)=O)CC3)oc2c1 | -2.46 |
| CCC[C@H]1CN(c2nccc(OC)n2)C[C@@H]1NC(=O)C1CCOCC1 | -6.8 |
| O[C@H]1[C@H](NCCc2cnccn2)c2ccccc2C12CCNCC2 | -3.75 |
| CCCC1(CO)CCCN(Cc2nccs2)C1 (centres undefined) | -4.2 |
| Cc1noc2ncnc(N3CCC(O)(Cn4ccnc4)CC3)c12 | 4.45 |
| Cn1cc(C(=O)N2CCC(c3ncc[nH]3)CC2)cn1 | -17.5 |
| COCC(=O)N1CCN(C(=O)Cc2cccs2)[C@H]2CS(=O)(=O)C[C@H]21 | -5.46 |
| CCN(CCn1cccn1)Cc1nc(-c2ccc(C)o2)oc1C | 13 |
